Assay results as given in publication PMC6678728, “Methylene Blue Blocks and Reverses the Inhibitory Effect of Tau on PMCA Function” (International Journal of Molecular Sciences, 2019).

Molecular target: T1, purified pig brain PMCA (brainPMCA)
T1 construct: gene ATP2B1; native, purified from pig brain synaptosomal plasma membrane vesicles, delipidated, reconstituted in PS or PC
Experiment: quenching of intrinsic Trp fluorescence, Stern-Volmer
Type: binding, Sus scrofa
Conditions: reconstituted in PS, no tau; pH 7.4, 25 °C, 100 mM KCl, 2 mM MgCl2, 3.16 µM free Ca2+, 1 mM ATP; unreliable (extrapolated: titrated only up to 10 µM MB)
Text: quenching of intrinsic Trp fluorescence, Stern-Volmer on purified pig brain PMCA (brainPMCA)

Structure (SMILES): CN(C)c1ccc2nc3ccc(=[N+](C)C)cc-3sc2c1 [Methylene blue]
- Kd: 52.6 ± 2.5 µM
